Data published in patent US20260008818A1, “CYCLIC PEPTIDE OR SALT THEREOF, AND USES THEREOF” (FUJIFILM Corporation, priority 2023, published 2026).
Bridge positions count the residues as written; N and C are the ends. Ends that are not written are not given here. COCH2 = acetyl group that carries the bridge

System: Recombinant Human FGFR1 alpha (IIIc) Fc Chimera Protein
Test: Binding affinity of enzymatically synthesized cyclic peptide to FGFR by ELISA
Settings: luminescence signal at reaction concentration 10 nmol/L, SEQ ID NO: 39 standardized to 1, enzyme synthesis product
How it was run: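 Plate-immobilized FGFR1α(IIIc)-Fc (5 ng/well) incubated with Myc-tagged cyclic peptide 3 h at room temperature; bound peptide detected with anti-Myc antibody (2 h) and chemiluminescence. Signal is FGFR minus no-FGFR wells, normalized to SEQ ID NO: 39 at 10 nmol/L and graded A–D.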

**Q.** Which “Evaluation result of binding affinity to FGFR” value (shortened to “Evaluation result”) does the source give for “306 (HCSYERLQFHGHEAMFRVK(COCH2)V; thioether 2-19 (inferred)) [compound 306]” here?
**A.** The value was “C (0.1 or more and less than 0.5)”.

**Q.** With “307 (HCSYERLQFHGHEAPFMVK(COCH2)V; thioether 2-19 (inferred)) [compound 307]” as the substance, how does the “Evaluation result” value read?
**A.** The value was “A (0.7 or more)”.

**Q.** Which “Evaluation result” value does the source give for “308 (HCSYERLQFHGHEAPFRMK(COCH2)V; thioether 2-19 (inferred)) [compound 308]” here?
**A.** Its value is “C (0.1 or more and less than 0.5)”.

**Q.** Which “Evaluation result” value does the source give for “309 (HCSYERLQFHGHEAPFRVK(COCH2)M; thioether 2-19 (inferred)) [compound 309]” here?
**A.** The value was “A (0.7 or more)”.

**Q.** How did the “Evaluation result” value turn out when “310 (YCTWERLIFLGHIAPFWVK(COCH2)R; thioether 2-19 (inferred)) [compound 310]” was run?
**A.** Its value is “C (0.1 or more and less than 0.5)”.

**Q.** “311 (RCTWERLIFLGHIAPFWVK(COCH2)R; thioether 2-19 (inferred)) [compound 311]” was tested. Which “Evaluation result” value did it give?
**A.** The value was “C (0.1 or more and less than 0.5)”.

**Q.** Which “Evaluation result” value does the source give for “312 (HCVWERLIFLGHIAPFWVK(COCH2)R; thioether 2-19 (inferred)) [compound 312]” here?
**A.** The value was “C (0.1 or more and less than 0.5)”.

**Q.** With “313 (HCQWERLIFLGHIAPFWVK(COCH2)R; thioether 2-19 (inferred)) [compound 313]” as the substance, how does the “Evaluation result” value read?
**A.** The value was “C (0.1 or more and less than 0.5)”.

**Q.** “314 (HCTFERLIFLGHIAPFWVK(COCH2)R; thioether 2-19 (inferred)) [compound 314]” was tested. Which “Evaluation result” value did it give?
**A.** Its value is “C (0.1 or more and less than 0.5)”.

**Q.** With “315 (HCTYERLIFLGHIAPFWVK(COCH2)R; thioether 2-19 (inferred)) [compound 315]” as the substance, how does the “Evaluation result” value read?
**A.** Its value is “C (0.1 or more and less than 0.5)”.

**Q.** How did the “Evaluation result” value turn out when “316 (HCTWERLVFLGHIAPFWVK(COCH2)R; thioether 2-19 (inferred)) [compound 316]” was run?
**A.** Its value is “C (0.1 or more and less than 0.5)”.

**Q.** For “317 (HCTWERLRFLGHIAPFWVK(COCH2)R; thioether 2-19 (inferred)) [compound 317]”, which “Evaluation result” value is on record?
**A.** The value was “C (0.1 or more and less than 0.5)”.

**Q.** For “318 (HCTWERLIFRGHIAPFWVK(COCH2)R; thioether 2-19 (inferred)) [compound 318]”, which “Evaluation result” value is on record?
**A.** The value was “C (0.1 or more and less than 0.5)”.

**Q.** Which “Evaluation result” value does the source give for “319 (HCTWERLIFQGHIAPFWVK(COCH2)R; thioether 2-19 (inferred)) [compound 319]” here?
**A.** Its value is “C (0.1 or more and less than 0.5)”.

**Q.** Which “Evaluation result” value does the source give for “320 (HCTWERLIFLGHLAPFWVK(COCH2)R; thioether 2-19 (inferred)) [compound 320]” here?
**A.** The value was “C (0.1 or more and less than 0.5)”.

**Q.** Which “Evaluation result” value does the source give for “321 (HCTWERLIFLGHVAPFWVK(COCH2)R; thioether 2-19 (inferred)) [compound 321]” here?
**A.** Its value is “C (0.1 or more and less than 0.5)”.

**Q.** “322 (HCTWERLIFLGHIAPFLVK(COCH2)R; thioether 2-19 (inferred)) [compound 322]” was tested. Which “Evaluation result” value did it give?
**A.** Its value is “C (0.1 or more and less than 0.5)”.

**Q.** Which “Evaluation result” value does the source give for “323 (HCTWERLIFLGHIAPFHVK(COCH2)R; thioether 2-19 (inferred)) [compound 323]” here?
**A.** Its value is “A (0.7 or more)”.

**Q.** Which “Evaluation result” value does the source give for “324 (HCTWERLIFLGHIAPFWVK(COCH2)V; thioether 2-19 (inferred)) [compound 324]” here?
**A.** The value was “B (0.5 or more and less than 0.7)”.

**Q.** “325 (HCTWERLIFLGHIAPFWVK(COCH2)S; thioether 2-19 (inferred)) [compound 325]” was tested. Which “Evaluation result” value did it give?
**A.** Its value is “B (0.5 or more and less than 0.7)”.

**Q.** “326 (HCSYERLQFHGHIAPFWVK(COCH2)V; thioether 2-19 (inferred)) [compound 326]” was tested. Which “Evaluation result” value did it give?
**A.** Its value is “A (0.7 or more)”.

**Q.** With “327 (HCSYERLIFHGHEAPFWVK(COCH2)V; thioether 2-19 (inferred)) [compound 327]” as the substance, how does the “Evaluation result” value read?
**A.** The value was “A (0.7 or more)”.

**Q.** With “328 (HCSYERLIFHGHIAPFWVK(COCH2)V; thioether 2-19 (inferred)) [compound 328]” as the substance, how does the “Evaluation result” value read?
**A.** Its value is “A (0.7 or more)”.

**Q.** With “329 (HCSYERLRFHGHIAPFWVK(COCH2)V; thioether 2-19 (inferred)) [compound 329]” as the substance, how does the “Evaluation result” value read?
**A.** Its value is “A (0.7 or more)”.

**Q.** For “330 (HCSYERLVFHGHIAPFWVK(COCH2)V; thioether 2-19 (inferred)) [compound 330]”, which “Evaluation result” value is on record?
**A.** Its value is “A (0.7 or more)”.

**Q.** “331 (HCSYERLIFHGHLAPFWVK(COCH2)V; thioether 2-19 (inferred)) [compound 331]” was tested. Which “Evaluation result” value did it give?
**A.** The value was “A (0.7 or more)”.

**Q.** Which “Evaluation result” value does the source give for “332 (HCTYERLIFHGHIAPFWVK(COCH2)V; thioether 2-19 (inferred)) [compound 332]” here?
**A.** Its value is “A (0.7 or more)”.

**Q.** “333 (HCVYERLIFHGHIAPFWVK(COCH2)V; thioether 2-19 (inferred)) [compound 333]” was tested. Which “Evaluation result” value did it give?
**A.** Its value is “A (0.7 or more)”.

**Q.** For “334 (HCSYERLIFLGHIAPFWVK(COCH2)V; thioether 2-19 (inferred)) [compound 334]”, which “Evaluation result” value is on record?
**A.** The value was “B (0.5 or more and less than 0.7)”.

**Q.** For “335 (HCSYERLIFRGHIAPFWVK(COCH2)V; thioether 2-19 (inferred)) [compound 335]”, which “Evaluation result” value is on record?
**A.** Its value is “A (0.7 or more)”.

**Q.** How did the “Evaluation result” value turn out when “336 (HCTYERLIFLGHIAPFWVK(COCH2)V; thioether 2-19 (inferred)) [compound 336]” was run?
**A.** Its value is “B (0.5 or more and less than 0.7)”.

**Q.** “337 (ACLPFLRIIIAGHWAPFLAK(COCH2)Q; thioether 2-20 (inferred)) [compound 337]” was tested. Which “Evaluation result” value did it give?
**A.** The value was “C (0.1 or more and less than 0.5)”.

**Q.** For “338 (PCLAPYGWVILDWGLVSNWK(COCH2)Y; thioether 2-20 (inferred)) [compound 338]”, which “Evaluation result” value is on record?
**A.** The value was “C (0.1 or more and less than 0.5)”.

**Q.** “339 (YCITQHPWAPFWVVNPWDNK(COCH2)L; thioether 2-20 (inferred)) [compound 339]” was tested. Which “Evaluation result” value did it give?
**A.** Its value is “C (0.1 or more and less than 0.5)”.

**Q.** How did the “Evaluation result” value turn out when “340 (HCLVKRLVSAWGELAPFWVK(COCH2)V; thioether 2-20) [compound 340]” was run?
**A.** Its value is “C (0.1 or more and less than 0.5)”.

**Q.** “341 (ACLPFLRIIIAGHWAPFLAK(COCH2)H; thioether 2-20) [compound 341]” was tested. Which “Evaluation result” value did it give?
**A.** Its value is “C (0.1 or more and less than 0.5)”.

**Q.** How did the “Evaluation result” value turn out when “342 (NCIPFWWQQHWWQYPVRVVK(COCH2)T; thioether 2-20) [compound 342]” was run?
**A.** Its value is “C (0.1 or more and less than 0.5)”.

**Q.** How did the “Evaluation result” value turn out when “343 (QCWQQAYAYFPHVLAPFLVK(COCH2)S; thioether 2-20) [compound 343]” was run?
**A.** The value was “C (0.1 or more and less than 0.5)”.

**Q.** With “344 (RCQPFVQLVFRSLLAPFLVK(COCH2)H; thioether 2-20) [compound 344]” as the substance, how does the “Evaluation result” value read?
**A.** Its value is “C (0.1 or more and less than 0.5)”.

**Q.** How did the “Evaluation result” value turn out when “345 (QCYLPFWFYQKARLLFHYIK(COCH2)S; thioether 2-20) [compound 345]” was run?
**A.** The value was “C (0.1 or more and less than 0.5)”.

**Q.** With “346 (ACWLRHIYQGHQAPFLIWSTK(COCH2)S; thioether 2-21) [compound 346]” as the substance, how does the “Evaluation result” value read?
**A.** Its value is “C (0.1 or more and less than 0.5)”.

**Q.** Which “Evaluation result” value does the source give for “347 (PCVQQISPHPWGAPFWVVTSK(COCH2)F; thioether 2-21) [compound 347]” here?
**A.** The value was “B (0.5 or more and less than 0.7)”.

**Q.** With “348 (PCTGWTPLYFFGKRAPFLVNK(COCH2)A; thioether 2-21) [compound 348]” as the substance, how does the “Evaluation result” value read?
**A.** Its value is “C (0.1 or more and less than 0.5)”.

**Q.** For “349 (HCLEQLVYGGDTAPFWIVVFK(COCH2)D; thioether 2-21) [compound 349]”, which “Evaluation result” value is on record?
**A.** Its value is “C (0.1 or more and less than 0.5)”.

**Q.** With “350 (LCSITRIQLFGYHAPFWHVVK(COCH2)S; thioether 2-21) [compound 350]” as the substance, how does the “Evaluation result” value read?
**A.** The value was “C (0.1 or more and less than 0.5)”.

**Q.** How did the “Evaluation result” value turn out when “351 (WCWQAPFNIVVNRKVSVLIVK(COCH2)G; thioether 2-21) [compound 351]” was run?
**A.** Its value is “C (0.1 or more and less than 0.5)”.

**Q.** “352 (ICINRLSQGTHFAPFWLVEYK(COCH2)N; thioether 2-21) [compound 352]” was tested. Which “Evaluation result” value did it give?
**A.** The value was “B (0.5 or more and less than 0.7)”.

**Q.** For “353 (PCVQQISPHPWGAPFWVVTSK(COCH2)Y; thioether 2-21) [compound 353]”, which “Evaluation result” value is on record?
**A.** Its value is “B (0.5 or more and less than 0.7)”.

**Q.** Which “Evaluation result” value does the source give for “355 (RCYFSRQGFWPFTYKLPFWVK(COCH2)H; thioether 2-21) [compound 355]” here?
**A.** The value was “C (0.1 or more and less than 0.5)”.

**Q.** For “356 (ACWLRHIYQGHKAPFLIWSTK(COCH2)S; thioether 2-21) [compound 356]”, which “Evaluation result” value is on record?
**A.** The value was “B (0.5 or more and less than 0.7)”.

**Q.** How did the “Evaluation result” value turn out when “357 (ACWLRHIYQGHQAPFLIWSTK(COCH2)Y; thioether 2-21) [compound 357]” was run?
**A.** The value was “C (0.1 or more and less than 0.5)”.

**Q.** How did the “Evaluation result” value turn out when “358 (NCWVQWFLSGHVVPFLVSLK(COCH2)S; thioether 2-20) [compound 358]” was run?
**A.** The value was “C (0.1 or more and less than 0.5)”.

**Q.** Which “Evaluation result” value does the source give for “359 (WCPWGDIHVVPFHK(COCH2)V; thioether 2-14) [compound 359]” here?
**A.** Its value is “C (0.1 or more and less than 0.5)”.

**Q.** “360 (DCWGWHREFVPFIK(COCH2)I; thioether 2-14) [compound 360]” was tested. Which “Evaluation result” value did it give?
**A.** The value was “B (0.5 or more and less than 0.7)”.

**Q.** For “361 (QCPWSTTQQVPFIK(COCH2)V; thioether 2-14) [compound 361]”, which “Evaluation result” value is on record?
**A.** The value was “C (0.1 or more and less than 0.5)”.

**Q.** How did the “Evaluation result” value turn out when “362 (WCHYAPFWVLNEGQLK(COCH2)V; thioether 2-16) [compound 362]” was run?
**A.** Its value is “C (0.1 or more and less than 0.5)”.

**Q.** For “363 (TCSILKHPWGAPFLVK(COCH2)T; thioether 2-16) [compound 363]”, which “Evaluation result” value is on record?
**A.** The value was “C (0.1 or more and less than 0.5)”.

**Q.** For “364 (WCQLRFQGHLAPFIIK(COCH2)S; thioether 2-16) [compound 364]”, which “Evaluation result” value is on record?
**A.** Its value is “C (0.1 or more and less than 0.5)”.
